Drawing on ChEMBL document CHEMBL3526086, “Identification of the oxidative and conjugative enzymes involved in the biotransformation of brivanib” (Drug Metab Dispos, 2012), this text covers Drug metabolism, Km and Vmax for seven molecules.

Data set [1] concerns Liver cytosol. Description: Drug level in human liver cytosol treated with 2 uM [14C](R)-1-(4-(4-fluoro-2-(hydroxymethyl)-1H-indol-5-yloxy)-5-methylpyrrolo[1,2-f][1,2,4]triazin-6-yloxy)propan-2-ol for 60 mins by LC/MS analysis in presence of PAPS. It is filed as ADME, tissue-based.
For data set [2], the system named is Liver cytosol. Description: Drug level in human liver cytosol treated with 2 uM [14C](R)-4-fluoro-5-(6-(2-hydroxypropoxy)-5-methylpyrrolo[1,2-f][1,2,4]triazin-4-yloxy)-1H-indole-2-carboxylic acid for 60 mins by LC/MS analysis in presence of PAPS. It counts as ADME, tissue-based.
The subject of data set [3] is Liver microsome. Description: Drug level in human liver microsomes treated with 2 uM [14C](R)-1-(4-(4-fluoro-2-methyl-1H-indol-5-yloxy)-5-methylpyrrolo[1,2-f][1,2,4]triazin-6-yloxy)propane-2-sulfonic acid for 60 mins by LC/MS analysis in presence of NADPH. It counts as ADME. In general terms: Microsomes from liver hold many membrane-bound enzymes, among them those of drug oxidation.

Data set [4] has as its system Liver cytosol. Description: Drug level in human liver cytosol treated with 2 uM [14C](R)-1-(4-(4-fluoro-2-(hydroxymethyl)-1H-indol-5-yloxy)-5-methylpyrrolo[1,2-f][1,2,4]triazin-6-yloxy)propan-2-ol for 60 mins by LC/MS analysis. It is filed as ADME, tissue-based.
For data set [5], the system named is Liver cytosol. Kind of data set: Drug level in human liver cytosol treated with 2 uM [14C](R)-1-(4-(4-fluoro-2-(hydroxymethyl)-1H-indol-5-yloxy)-5-methylpyrrolo[1,2-f][1,2,4]triazin-6-yloxy)propan-2-ol for 60 mins by LC/MS analysis in presence of NADPH. It counts as ADME, tissue-based.
Data set [6] concerns Liver microsome. Kind of data set: Drug level in human liver microsomes assessed as compound formation treated with 2 uM [14C]brivanib alaninate for 60 mins by LC/MS analysis in presence of NADPH. It is filed as ADME. Conditions: 1 h.
For data set [7], the system named is Liver microsome. Description: Drug metabolism in human liver microsomes assessed as (R)-1-(4-(4-fluoro-2-(hydroxymethyl)-1H-indol-5-yloxy)-5-methylpyrrolo[1,2-f][1,2,4]triazin-6-yloxy)propane-2-sulfonic acid at 2 uM for 60 mins by LC/MS analysis in presence of NADPH. It is filed as ADME.
The test system of data set [8] is Liver microsome. Kind of data set: Drug metabolism in human liver microsomes assessed as (R)-4-fluoro-5-(5-methyl-6-(2-sulfopropoxy)pyrrolo[1,2-f][1,2,4]triazin-4-yloxy)-1H-indole-2-carboxylic acid at 2 uM for 60 mins by LC/MS analysis in presence of NADPH. It is filed as ADME.
For data set [9], the system named is Liver microsome. Description: Drug metabolism in human liver microsomes assessed as compound oxidation at 2 uM for 60 mins by LC/MS analysis in absence of NADPH. It counts as ADME. Conditions: 1 h.
Data set [10] has as its system Liver cytosol. Description: Drug metabolism in human liver cytosol assessed as (R)-4-fluoro-5-(5-methyl-6-(2-sulfopropoxy)pyrrolo[1,2-f][1,2,4]triazin-4-yloxy)-1H-indole-2-carboxylic acid formation at 2 uM for 60 mins by LC/MS analysis in presence of PAPS. It is filed as ADME.
Data set [11] deals with Liver cytosol. Kind of data set: Drug metabolism in human liver cytosol assessed as sulfate conjugate formation at 2 uM for 60 mins in absence of PAPS by LC/MS analysis. It is filed as ADME, tissue-based. As to conditions: 1 h.
Substrate in data set [12]: Cc1cc2c(F)c(Oc3ncnn4cc(OC[C@@H](C)O)c(C)c34)ccc2[nH]1
Kind of data set: Activity of human CYP1A2 assessed as enzyme-mediated (R)-1-(4-(4-fluoro-2-(hydroxymethyl)-1H-indol-5-yloxy)-5-methylpyrrolo[1,2-f][1,2,4]triazin-6-yloxy)propan-2-ol formation in presence of NADPH. It counts as ADME.

For the molecule `Cc1c(OC[C@@H](C)OS(=O)(=O)O)cn2ncnc(Oc3ccc4[nH]c(C(=O)O)cc4c3F)c12`, the Drug metabolism entry in data set [1], in data set [2] and in data set [3] was “metabolite_detected” each time.

For the molecule `Cc1c(OC[C@@H](C)O)cn2ncnc(Oc3ccc4[nH]c(C(=O)O)cc4c3F)c12`, the Drug metabolism entry in [4], in [5] and in data set [6] was “metabolite_detected” throughout.

Consider `Cc1cc2c(F)c(Oc3n[14cH]nn4cc(OC[C@@H](C)OS(=O)(=O)O)c(C)c34)ccc2[nH]1`, for which the figures for the Drug metabolism entry in data set [7], in [8] and in data set [9] were “metabolite_detected”, “metabolite_detected” and “metabolite_not_detected”, respectively.

As for `CC(=O)COc1cn2ncnc(Oc3ccc4[nH]c(C)cc4c3F)c2c1C`, the Drug metabolism entry in data set [6] is given as “metabolite_detected”.

`Cc1c(OC[C@@H](C)OS(=O)(=O)O)cn2ncnc(Oc3ccc4[nH]c(CO)cc4c3F)c12`: the Drug metabolism result in data set [1] and in data set [3] was “metabolite_detected” throughout.

For `Cc1c(OC[C@@H](C)O)cn2n[14cH]nc(Oc3ccc4[nH]c(C(=O)O)cc4c3F)c12`, the Drug metabolism result in data set [10] is “metabolite_detected”; in [11] it was “metabolite_not_detected”.

B1: Cytochrome P450 1A2 (Homo sapiens) (protein)
chain: MALSQSVPFSATELLLASAIFCLVFWVLKGLRPRVPKGLKSPPEPWGWPLLGHVLTLGKNPHLALSRMSQRYGDVLQIRIGSTPVLVLSRLDTIRQALVRQGDDFKGRPDLYTSTLITDGQSLTFSTDSGPVWAARRRLAQNALNTFSIASDPASSSSCYLEEHVSKEAKALISRLQELMAGPGHFDPYNQVVVSVANVIGAMCFGQHFPESSDEMLSLVKNTHEFVETASSGNPLDFFPILRYLPNPALQRFKAFNQRFLWFLQKTVQEHYQDFDKNSVRDITGALFKHSKKGPRASGNLIPQEKIVNLVNDIFGAGFDTVTTAISWSLMYLVTKPEIQRKIQKELDTVIGRERRPRLSDRPQLPYLEAFILETFRHSSFLPFTIPHSTTRDTTLNGFYIPKKCCVFVNQWQVNHDPELWEDPSEFRPERFLTADGTAINKPLSEKMMLFGMGKRRCIGEVLAKWEIFLFLAILLQQLEFSVPPGVKVDLTPIYGLTMKHARCEHVQARLRFSIN
Turning to B1, in data set [12], the Km was found to be 45 µM and the Vmax was determined as 1.39e-06 µmol/min.

The Km is the concentration of substrate that gives half-maximal velocity. For orientation: Vmax means the top rate of the reaction or transport when substrate is in excess.
